US8263642B2, “Antimicrobial compounds and methods of use thereof” (Vanderbilt University, priority 2008, dated 2012)

Tests used:
[1] = system: HssRS-dependent hrtAB expression; assay: Luminescence-based assay to monitor HssRS-dependent hrtAB expression (phrtABlux reporter), Newman; format: cell-based, Staphylococcus aureus; details: for activation at 0.0825 µM: Staphylococcus aureus, NEWMAN, read-out: % Lumi, luminescence induced by the compound compared to the heme control (82.5 nM) in the same plate; for activation at 0.0825 µM / Luminescence: Newman; for Luminescence: raw luminescence value obtained in a luminometer
Summary of the method: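 S. aureus Newman wild type or ΔhssR carrying a hrtAB promoter–luxCDABE reporter (phrtABlux), grown in TSB with 10 μg/ml chloramphenicol at 37 °C. Light output read against 82.5 nM heme as the in-plate positive control. Activity given as % of heme-induced luminescence.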

response regulator HssR [2] = assay: HssR dependence of XylE inducing activity, Newman; format: cell-based, Staphylococcus aureus; details: whether XylE inducing activity requires HssR
Description: With reference to Table 1, “Luminescence” refers to the raw luminescence value obtained in a luminomter. “Control (82.5 nm)” refers to the luminescence value obtained from heme at 82.5 nM as a positive control in the same plate as the experimental. “% lum” is the percentage of luminescence induced by the compound as compared to the heme control in the same plate. […] All of these assays are described in the application. […] “N/T” indicates the test was not performed. […]
S. aureus strains harboring the appropriate reporter construct were inoculated into 500 μl of TSB containing 10 μg/ml chloramphenicol in 1.5 ml tubes. Cultures were grown O/N at 37° C. with shaking. Bacteria were pelleted by centrifugation and spent medium was aspirated. The pellet was washed once with 500 μl of 20 mM potassium phosphate, pH 7.6, and resuspended in 150 μl of 100 mM potassium phosphate buffer, pH 8.0, 10% (v/v) acetone, 25 μg/ml lysostaphin. After 20 minute incubation at 37° C. and 5 minute incubation on ice, samples were centrifuged at 20,000 g for 30 minutes at 4° C. 1-10 μl of supernatant was added to a 96-well plate and 200 μl of 100 mM potassium phosphate, pH 8.0, 0.2 mM pyrocatechol was added to each well. Formation of 2-hydroxymuconic semialdehyde was tracked by measuring the absorbance at 375 nm every minute for 30 minutes on a Varian MP 50 microplate reader. Protein concentration in samples was determined by BCA (Pierce). One unit of specific activity of XylE in a sample is defined as the formation of 1 nmol of 2-hydroxymuconic semialdehyde per minute per milligram of cellular protein at 30° C. (Chien, Y., Manna, A. C., Projan, S. J., and Cheung, A. L. 1999, “SarA, a global regulator of virulence determinants in Staphylococcus aureus, binds to a conserved motif essential for sar-dependent gene regulation. J. Biol. Chem. 274, 37169-37176).

[3] = system: hrtAB-driven expression of the xylE reporter gene; assay: XylE reporter assay (hrtAB promoter-xylE), Newman; format: cell-based, Staphylococcus aureus; details: for XylE (0.05): level of XylE induction at 0.05 uM of the compound; for XylE (0.5): level of XylE induction at 0.5 uM of the compound; for XylE (5.0): level of XylE induction at 5.0 uM of the compound; for XylE (50.0): level of XylE induction at 50.0 uM of the compound
Summary of the method: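 S. aureus carrying hrtAB promoter-xylE fusion in pOS1 grown O/N at 37° C in TSB with chloramphenicol, lysed with lysostaphin. Lysate XylE activity read as 2-hydroxymuconic semialdehyde formation from 0.2 mM pyrocatechol (A375, every minute for 30 minutes), normalised to BCA protein; unit = 1 nmol/min/mg at 30° C.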

response regulator HssR [4] = assay: HssR dependence, Stern test; format: cell-based
Description: (§1) Methods for obtaining the data shown in Tables 1 and 2 are described herein.
(§2) With reference to Table 1, “Luminescence” refers to the raw luminescence value obtained in a luminomter. “Control (82.5 nm)” refers to the luminescence value obtained from heme at 82.5 nM as a positive control in the same plate as the experimental. “% lum” is the percentage of luminescence induced by the compound as compared to the heme control in the same plate. […] All of these assays are described in the application. […] “N/T” indicates the test was not performed.

Stern = assay: Heme adaptation, Stern test; format: cell-based
Description: as §1, §2

[5] = Solubility of heme in solution; format: physicochemical; details: concentrations above this are insoluble

SMILES | activation at 0.0825 µM [1] [%] | Luminescence [1] | HssR Dep (response regulator HssR [2]) | XylE (0.05) [3] | XylE (0.5) [3] | XylE (5.0) [3] | XylE (50.0) [3] | HssR Dep (response regulator HssR [4]) | Heme Adapt (Stern) | light production on solid medium ([1]; S. aureus containing phrtABlux, solid medium without or with 4 μM heme) | luminescence in liquid media ([1]; S. aureus wildtype containing phrtABlux, liquid media with or without heme) | increase in luminescence ([1]; exposure of S. aureus to 3 μM heme, preliminary results) [fold] | increase in luminescence over negative control strains ([1]; heme-exposed wildtype harboring phrtABlux vs wildtype plux and ΔhssR phrtABlux, preliminary results) [fold] | soluble concentration in solution [5] [µM]
CC1=NN(c2ccccc2)C(=O)/C1=N\Nc1ccccc1O | 60.3 | 1848 | − | 0.07 | 0.05 | 0.2 | 1 |  |  |  |  |  |  | 
CCOC(=O)c1c(NC(=O)c2ccccc2)sc(C(C)=O)c1-c1ccccc1 | 109 | 312 | − | 0.03 | 1 | 0.3 | 0.08 |  |  |  |  |  |  | 
O=C(Nc1ccc(NC(=O)c2cccs2)c(Cl)c1)c1cccs1 | 111 | 406 | − | 0.05 | 0.05 | 0.9 | 0.06 |  |  |  |  |  |  | 
Brc1ccc(-c2nc(NCc3ccccc3)c3ccccc3n2)cc1 |  | 4302 | − | 1 | 1 | 0.5 | 0.2 |  |  |  |  |  |  | 
COc1ccc(CCNC(=O)C(=O)Nc2cccc(Cl)c2)cc1OC | 355 | 2830 | − | 1 | 0.5 | 0.8 | 5 |  |  |  |  |  |  | 
O=c1c2ccccc2nc(/C=C\c2ccccc2Cl)n1-c1ccccc1O |  | 6843 | + | 0.08 | 1 | 50 | 1 |  |  |  |  |  |  | 
O=C(O)C1CSC(c2cccnc2)=N1 (centres unmarked) |  | 2360 | − | 1 | 1 | 1 | 3 |  |  |  |  |  |  | 
Cc1ccc(-c2nnc(SCC(=O)NC3CCCC3)nc2-c2ccc(C)cc2)cc1 | 855 | 1658 | − |  | 1 | 0.5 | 0.04 |  |  |  |  |  |  | 
c1ccc(-c2ccc(CSc3nc4ccccc4[nH]3)cc2)cc1 |  | 1822 | + |  | 0.03 | 0.08 | 11 |  |  |  |  |  |  | 
CC(C)CSc1nnc(-c2ccccc2)c(-c2ccccc2)n1 | 383 | 1706 | + |  | 0.04 | 0.07 | 1 |  |  |  |  |  |  | 
COC(NC(=O)Nc1nc2ccccc2s1)(C(F)(F)F)C(F)(F)F | 280 | 1747 | − |  | 4 | 0.04 | 7 |  |  |  |  |  |  | 
Cc1ccc(CSCc2ccc(C(=O)NCc3ccc(F)cc3)o2)cc1 | 198 | 1653 | + |  | 0 | 3 | 5 |  |  |  |  |  |  | 
Cc1nc(Nc2ccc(Oc3ccccc3)cc2)c2c(C)c(C)sc2n1 |  | 1627 | − |  | 0.6 | 0.09 | 0 |  |  |  |  |  |  | 
O=C(NC(=S)Nc1ccc(-c2nc3ccccc3s2)cc1)c1ccccc1[N+](=O)[O-] [drawing 23] | 374 | 1794 |  | 0.09 | 0.07 | 0.08 | 0.2 |  |  |  |  |  |  | 
COc1ccc(Br)cc1C(=O)NC(=S)Nc1cc(C)c(C)cc1O [drawing 24] | 227 | 946 |  | 0.07 | 0.3 | 0.09 | 0.3 |  |  |  |  |  |  | 
Cc1cccc(C(=O)Nc2ccc(-c3nc4ccccc4o3)cc2)c1 [drawing 27] | 294 | 837 |  | 0.07 | 0.09 | 0.08 | 0.2 |  |  |  |  |  |  | 
CCCN1C(=O)/C(=C2/C(=O)N(CC(=O)Nc3ccc(Cl)cc3)c3ccccc32)SC1=S [drawing 28] |  | 1600 | − | 1 | 0.06 | 0.07 | 0.02 |  |  |  |  |  |  | 
Cc1ccc(O)c(NC(=O)c2nn3c(c2Br)NC(c2ccco2)CC3C(F)(F)F)c1 (centres unmarked) [drawing 60] |  | 1949 |  | 0.07 | 0.7 | 11 | 1 |  |  |  |  |  |  | 
O=C(NC(=S)Nc1ccc(-c2nc3ccccc3s2)cc1)c1ccccc1[N+](=O)[O-] [drawing 61] |  | 1794 |  | 0.1 | 0.7 | 0.8 | 0.8 |  |  |  |  |  |  | 
Oc1c(-c2cc(-c3ccco3)[nH]n2)ccc2ccccc12 [drawing 131] |  |  |  |  |  |  |  | − | − |  |  |  |  | 
CC(NC(=O)C1(c2ccccc2)CCCC1)C1COc2ccccc2O1 (centres unmarked) [drawing 132] |  |  |  |  |  |  |  | + | + |  |  |  |  | 
O=C(N/N=C/c1ccc(-c2ccc(Br)cc2)o1)C1COc2ccccc2O1 (centres unmarked) [drawing 133] |  |  |  |  |  |  |  | + | + |  |  |  |  | 
O=C(N/N=C/c1ccc(-c2cccc(C(F)(F)F)c2)o1)C1COc2ccccc2O1 (centres unmarked) [drawing 134] |  |  |  |  |  |  |  | − | − |  |  |  |  | 
Cc1ccc(NS(=O)(=O)c2ccc3c(c2)Cc2cc(S(=O)(=O)Nc4ccc(C)cc4)ccc2-3)cc1 [drawing 135] |  |  |  |  |  |  |  | + | + |  |  |  |  | 
COc1ccccc1NC1=C/C(=N\S(=O)(=O)c2ccc(Br)cc2)c2ccccc2C1=O [drawing 136] |  |  |  |  |  |  |  | + | + |  |  |  |  | 
C=CC1=C(C)c2cc3[n-]c(cc4[n-]c(cc5nc(cc1n2)C(C)=C5C=C)c(C)c4CCC(=O)O)c(CCC(=O)O)c3C.[Fe+2] [heme, reference compound] |  |  |  |  |  |  |  |  |  | generated light exclusively upon heme exposure | robust luminescence | 100 | 100 | ≤ 30
